Laboratory results as given in PMC7961093, “Insights into the dual cleavage activity of the GH16 laminarinase enzyme class on β-1,3 and β-1,4 glycosidic bonds” (The Journal of Biological Chemistry, 2021).

Experiments:
[1] = biological target: T1, SCLam (soil metagenome, UniProt Z9RH19THY1, E147S); experiment: isothermal titration calorimetry; format: binding; settings: 20 mM sodium phosphate pH 6.5, 20 °C
T1 construct: monomer in asymmetric unit
T1 sequence (Z9RH19THY1 4-269 E147S): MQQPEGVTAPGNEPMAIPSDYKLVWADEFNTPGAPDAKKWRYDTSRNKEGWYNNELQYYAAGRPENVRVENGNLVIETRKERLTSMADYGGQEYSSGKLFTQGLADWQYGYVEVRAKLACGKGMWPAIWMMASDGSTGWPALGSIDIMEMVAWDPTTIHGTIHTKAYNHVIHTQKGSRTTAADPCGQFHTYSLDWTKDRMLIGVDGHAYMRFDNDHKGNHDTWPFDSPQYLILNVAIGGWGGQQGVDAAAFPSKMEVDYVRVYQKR
Source text: isothermal titration calorimetry on SCLam

[2] = biological target: T2, TpLam (Thermotoga petrophila, UniProt A5IL44); experiment: capillary zone electrophoresis of hydrolysis products; format: biochemical; settings: 5 mM substrate, 10 μM enzyme, 70 °C, overnight
T2 construct: gene Tpet_0899; purified preparation
T2 sequence (A5IL44 18-641): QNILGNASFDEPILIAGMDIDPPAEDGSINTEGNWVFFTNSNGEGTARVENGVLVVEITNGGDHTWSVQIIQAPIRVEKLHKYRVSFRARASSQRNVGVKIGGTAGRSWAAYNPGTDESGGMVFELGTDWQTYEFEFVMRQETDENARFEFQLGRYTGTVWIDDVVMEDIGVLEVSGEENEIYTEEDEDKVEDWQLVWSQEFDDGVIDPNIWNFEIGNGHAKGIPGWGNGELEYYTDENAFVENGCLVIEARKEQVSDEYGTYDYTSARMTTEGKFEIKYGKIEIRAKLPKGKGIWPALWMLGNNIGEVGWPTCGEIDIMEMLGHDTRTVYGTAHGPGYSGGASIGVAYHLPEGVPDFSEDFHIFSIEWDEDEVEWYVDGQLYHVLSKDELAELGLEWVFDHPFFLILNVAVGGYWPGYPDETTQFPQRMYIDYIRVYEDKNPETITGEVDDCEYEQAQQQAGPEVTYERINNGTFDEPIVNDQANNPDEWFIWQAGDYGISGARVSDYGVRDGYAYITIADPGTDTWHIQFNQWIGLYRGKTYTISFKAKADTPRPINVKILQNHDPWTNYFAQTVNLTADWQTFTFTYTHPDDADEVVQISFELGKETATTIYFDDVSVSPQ

[3] = sequential binding model, site 1 (negative subsites)

| Compound | Ka × 10^4 (M^-1) ([1]; single-site model) | Ka × 10^4 (M^-1) [1, 3] | other results |
| --- | --- | --- | --- |
| OC[C@H]1O[C@@H](O[C@H]2[C@H](O)[C@@H](O)[C@H](O[C@H]3[C@H](O)[C@@H](O)[C@H](O[C@H]4[C@H](O)[C@@H](CO)OC(O)[C@@H]4O)O[C@@H]3CO)O[C@@H]2CO)[C@H](O)[C@@H](O)[C@@H]1O (stereo partly drawn) [BGB, 1,3-β-D-cellotriosyl-glucose] | 66.7 (±1.4) × 10^4 | – | – |
| OC[C@H]1O[C@@H](O[C@H]2[C@H](O)[C@@H](O)[C@H](O[C@@H]3[C@@H](O)[C@H](O[C@H]4[C@H](O)[C@@H](O)C(O)O[C@@H]4CO)O[C@H](CO)[C@H]3O)O[C@@H]2CO)[C@H](O)[C@@H](O)[C@@H]1O (stereo partly drawn) [BGC, 1,3-β-D-cellobiosyl-cellobiose] | 0.59 (±0.07) × 10^4 | – | – |
| OC[C@H]1O[C@@H](O[C@H]2[C@H](O)[C@@H](O)[C@H](O[C@H]3[C@H](O)[C@@H](O)[C@H](O[C@H]4[C@H](O)[C@@H](O)[C@H](O[C@H]5[C@H](O)[C@@H](O)C(O)O[C@@H]5CO)O[C@@H]4CO)O[C@@H]3CO)O[C@@H]2CO)[C@H](O)[C@@H](O)[C@@H]1O (some centres unmarked) [C5, cellopentaose] | – | – | capillary zone electrophoresis of hydrolysis products [2]: we also evaluated the activity of the TpLam from Thermotoga petrophila |
| OC[C@H]1O[C@@H](O[C@H]2[C@H](O)[C@@H](O)[C@H](O[C@H]3[C@H](O)[C@@H](O)[C@H](O[C@H]4[C@H](O)[C@@H](O)[C@H](O[C@H]5[C@H](O)[C@@H](O)[C@H](O[C@H]6[C@H](O)[C@@H](O)C(O)O[C@@H]6CO)O[C@@H]5CO)O[C@@H]4CO)O[C@@H]3CO)O[C@@H]2CO)[C@H](O)[C@@H](O)[C@@H]1O (some centres unmarked) [C6, cellohexaose] | – | 9.7 (±0.56) × 10^4 | – |
| OC[C@H]1O[C@@H](O[C@@H]2[C@@H](O)[C@H](O[C@@H]3[C@@H](O)[C@H](O[C@@H]4[C@@H](O)[C@H](O[C@@H]5[C@@H](O)[C@H](O[C@H]6[C@H](O)[C@@H](CO)OC(O)[C@@H]6O)O[C@H](CO)[C@H]5O)O[C@H](CO)[C@H]4O)O[C@H](CO)[C@H]3O)O[C@H](CO)[C@H]2O)[C@H](O)[C@@H](O)[C@@H]1O (some centres unmarked) [L6, laminarihexaose] | – | 17.8 (±2.2) × 10^4 | – |
